Consider two molecules from PMC6973046 (Journal of Thrombosis and Haemostasis, 2019).

Series [1] has as its target T1, tissue transglutaminase (Homo sapiens, UniProt P21980).
T1 sequence (P21980 1-687): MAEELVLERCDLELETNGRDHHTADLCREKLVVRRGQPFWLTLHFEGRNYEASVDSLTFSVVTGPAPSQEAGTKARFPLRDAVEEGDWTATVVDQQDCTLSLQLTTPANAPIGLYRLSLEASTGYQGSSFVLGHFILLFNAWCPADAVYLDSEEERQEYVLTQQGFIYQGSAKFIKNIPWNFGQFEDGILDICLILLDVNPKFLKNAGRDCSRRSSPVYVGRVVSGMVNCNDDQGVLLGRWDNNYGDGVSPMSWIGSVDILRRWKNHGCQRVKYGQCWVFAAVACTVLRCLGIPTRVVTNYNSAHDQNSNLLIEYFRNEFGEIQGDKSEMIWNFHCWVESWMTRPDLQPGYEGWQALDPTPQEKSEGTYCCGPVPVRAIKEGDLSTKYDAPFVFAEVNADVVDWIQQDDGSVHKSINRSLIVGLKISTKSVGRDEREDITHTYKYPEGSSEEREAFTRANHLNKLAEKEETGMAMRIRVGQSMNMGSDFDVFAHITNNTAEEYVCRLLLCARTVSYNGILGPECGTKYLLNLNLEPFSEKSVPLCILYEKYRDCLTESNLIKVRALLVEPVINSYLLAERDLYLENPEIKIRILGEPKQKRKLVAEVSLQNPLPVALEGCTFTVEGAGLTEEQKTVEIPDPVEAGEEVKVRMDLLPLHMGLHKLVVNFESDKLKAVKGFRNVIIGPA
The series can be described thus: Isopeptidase assay. Type of series: biochemical. As to conditions: read-out: IC50 against tissue transglutaminase in the isopeptidase assay.

Series [2] deals with humans. As to conditions: cited from earlier work.

In the case of `CC(=O)CSc1n(C)c(C)c(C)[n+]1C` [L‐682.777], the IC50 (in general, the concentration needed to halve the response being measured) in series [1] was ~250 nM.
As to `CCC(CC)CNC(=O)Cn1cccc(NC(=O)[C@H](CC/C=C/C(=O)OC)NC(=O)c2cncn2C)c1=O` [ZED1227], in series [2], the Safety and tolerability result was “safe and well tolerated”.
